# From patent EP4643657A1, “COMPOSITIONS CONTAINING SHORT-CHAIN FATTY ACID, METHODS OF USE, AND METHODS OF MAKING THEREOF” (Velocity Life Sciences, LLC, priority 2024, dated 2025)
# Several values for one entry are separate records, joined by “and”; a condition that tells them apart may be missing. Identical values can stand only once. Entries after “also recorded” stand apart in the source; their conditions may differ. Like-named read-outs stand apart in the source and are kept apart here.
# Assays:
# [1] = given intravenously; plasma; cited from earlier work
# [2] = Exposure of the prepared salt to air at room temperature (hygroscopicity, storage stability); format: physicochemical; details: for Hygroscopicity: exposed at room temperature to air
# Excerpt: The L-arginine butyrate prepared using ethanol as the sole solvent was a white to off-white powder.
# The L-lysine butyrate prepared using ethanol as the sole solvent was a light, pale yellow to yellow powder. […] Table 1: Attempted preparation of salts of amino acids and amino acid derivatives of butyric acid.
# [3] = Nootropic and related properties after oral administration (Example 3); format: in vivo, human
# Description: In another experiment, L-lysine butyrate in a dose range of 500 mg to 5,000 mg was administered as an aqueous solution to six individuals aged between 22 and 55 years, comprising two women and four men. […] The observed effects were dose-dependent, with larger doses of L-lysine butyrate providing greater effects and longer duration, lasting up to four hours.
# In another experiment, L-lysine butyrate in a dose of 2 g, and on a separate occasion 5 g, was administered in encapsulated form, to 2 individuals. A further individual was administered L-lysine butyrate in a dose of 2 g in encapsuled form.
# [4] = Visual-analog scales of affect, randomized three-arm crossover trial (Example 5); format: in vivo, human; parameters: Mood AUC / Alertness AUC / Well-being AUC / Calm and Relaxed AUC / Stressed and Anxious AUC: unit not given here
# Description: Experimental Design: This was a randomized, three-arm, crossover trial in which participants visited the laboratory on four occasions (one screening visit and three testing visits). […] Written informed consent was obtained from all subjects prior to enrollment. The study was retrospectively registered on clinicaltrials.gov (#NCT06700785). This study was conducted at The Center for Applied Health Sciences, a contract research organization located in Northeast Ohio. […] VAS assessed subjective ratings of state of well-being, calm and relaxed, stressed and anxious, mood, motivation to perform tasks, level of alertness, and ability to concentrate and were anchored with "Worst possible", "Lowest possible", "Strongly Disagree", or "Best Possible", "Highest Possible", "Strongly Agree". […] Statistical Analyses: Normality was assessed using Q-Q plot and Shapiro-Wilks test. Severe non-normal measures were normalized using log (In) transformation. Serum butyrate concentrations, subjective ratings of affect, and vitals over time between treatments were analyzed using a mixed effects factorial ANOVA . Tukey post hocs were applied if significant main effects/interactions were observed. […] Effect sizes are reported as Cohen's d (with 0.2 considered a small effect, 0.5 considered a medium effect, and 0.8 considered a large effect). All analyses were conducted in GraphPad Prism v.10.4.0.
# [5] = Serum butyrate pharmacokinetics, randomized three-arm crossover trial (Example 5); details: for Serum Butyrate: 10 healthy men, Mean ± SD; for Tmax comparison between treatments: Wilcoxon rank test; for AUC0-210 comparison between treatments / Cmax comparison between treatments: paired samples t-test
# [6] = male, human, in vivo
# [7] = seven (7) days at room temperature
# [8] = 500 mg to 5,000 mg as aqueous solution, six individuals
# [9] = 0 min (prior to ingestion), 100-mm VAS, Mean±SD
# [10] = motivation to perform tasks, 0 min (prior to ingestion), 100-mm VAS, Mean±SD
# [11] = 0-210 min, 786 mg of butyric acid oral, Mean±SD
# [12] = 45 min post ingestion, 786 mg of butyric acid oral, 100-mm VAS, Mean±SD
# [13] = 90 min post ingestion, 786 mg of butyric acid oral, 100-mm VAS, Mean±SD
# [14] = 150 min post ingestion, 786 mg of butyric acid oral, 100-mm VAS, Mean±SD
# [15] = 210 min post ingestion, 786 mg of butyric acid oral, 100-mm VAS, Mean±SD
compound,measurement,setting,value
"CCCC(=O)O [Butyric Acid, butanoic acid]",half-life,[1],about six
"CCCC(=O)O [L-Lysine Butyrate, L-lysine butyrate]",Appearance after exposure to air,[2]; 24 hours at room temperature,"remained a fine, free-flowing yellow powder"
same,Hygroscopicity,[2],not hygroscopic
same,Appearance after exposure to air,[2]; [7],"remained a fine, free-flowing powder with no color change"
same,Appearance after exposure to air,[2]; thirty (30) days at room temperature,"remained a fine, free-flowing powder"
same,Dose dependence of observed effects,"[3]; 500 mg to 5,000 mg as aqueous solution",dose-dependent
same,Effects reported by participants,[3]; [8],"more relaxed, less tired, more sociable, and able to concentrate on tasks more effectively"
same,Time to reported effects after administration,[3]; [8],thirty
same,Duration of effects,"[3]; 500 mg to 5,000 mg as aqueous solution, larger doses",up to four
same,Analgesic effect,"[3]; 2 g oral, encapsulated form, two of the individuals","analgesic effect, eliminating minor-to-moderate pain and discomfort"
same,Mental effects,"[3]; single oral administration of 2 g, encapsulated form","pleasant mental effects, including an improvement in focus, alertness, concentration, reduction in anxiety, and a general feeling of well-being"
same,Mental effects,"[3]; single oral administration of 5 g, encapsulated form","undesirable mental effects, interfering with focus and alertness, with effects similar to intoxication"
same,Alertness,[4]; [9],6.9 ± 1.5^€
same,Calm and Relaxed,[4]; [9],7.5 ± 0.8^# cm
same,Concentration,[4]; [9],7.1 ± 1.3 cm
same,Mood,[4]; [9],7.7 ± 0.9 cm
same,Stressed and Anxious,[4]; [9],2.0 ± 1.4 cm
same,Well-being,[4]; [9],7.3 ± 0.9 cm
same,Alertness,"[4]; in vivo, po",7.2 ± 1.3 and 7.4 ± 1.2 and 7.5 ± 1.2 and 7.5 ± 1.1
same,Alertness AUC,"[4]; in vivo, po",1544 ± 249
same,Calm and Relaxed,"[4]; in vivo, po",7.7 ± 0.9^# cm and 7.6 ± 1.2 cm and 7.6 ± 1.1^# cm and 8.0 ± 0.9 cm
same,Calm and Relaxed AUC,"[4]; in vivo, po",1612 ± 207
same,Concentration,"[4]; in vivo, po",7.1 ± 1.4 cm and 7.5 ± 1.3^β cm and 7.4 ± 1.1 cm and 7.3 ± 1.6 cm
same,Concentration AUC,"[4]; in vivo, po",1532 ± 241
same,Mood,"[4]; in vivo, po",7.9 ± 0.7 cm and 7.6 ± 1.1 cm and 8.0 ± 0.7 cm and 8.0 ± 0.8 cm
same,Mood AUC,"[4]; in vivo, po",1651 ± 171
same,Perform Tasks,"[4]; in vivo, po",7.1 ± 1.3 cm and 7.4 ± 1.1 cm and 7.6 ± 1.3 cm
same,Perform Tasks AUC,"[4]; in vivo, po",1547 ± 262
same,Stressed and Anxious,"[4]; in vivo, po",2.1 ± 1.6 cm and 2.3 ± 1.7 cm and 1.8 ± 1.3 cm and 2.0 ± 1.3 cm
same,Stressed and Anxious AUC,"[4]; in vivo, po",431 ± 288
same,Well-being,"[4]; in vivo, po",7.6 ± 0.9^# cm and 7.6 ± 1.1 cm and 7.7 ± 1.0^# cm and 8.0 ± 0.9 cm
same,Well-being AUC,"[4]; in vivo, po",1610 ± 195
same,Perform Tasks,[4]; [10],6.9 ± 1.7 cm
same,Serum Butyrate,"[5]; 0 min (baseline, prior to ingestion)",0.32 ± 0.43 µg/mL
same,Serum Butyrate,"[5]; 20 min post ingestion, oral, 3 capsules delivering 786 mg of butyric acid",4.53 ± 7.56 µg/mL
same,Serum Butyrate,"[5]; 45 min post ingestion, oral, 3 capsules delivering 786 mg of butyric acid",0.77 ± 1.49 µg/mL
same,Serum Butyrate,"[5]; 90 min post ingestion, oral, 3 capsules delivering 786 mg of butyric acid",0.39 ± 0.62 µg/mL
same,Serum Butyrate,"[5]; 150 min post ingestion, oral, 3 capsules delivering 786 mg of butyric acid",0.43 ± 0.64 µg/mL
same,Serum Butyrate,"[5]; 210 min post ingestion, oral, 3 capsules delivering 786 mg of butyric acid",0.37 ± 0.55 µg/mL
same,Tmax comparison between treatments,[5]; listed as LysB,did not differ from NaB; also recorded: significantly less than TB
same,AUC0-210 comparison between treatments,[5]; listed as LysB,did not differ from NaB; also recorded: significantly greater than TB
same,Cmax comparison between treatments,[5]; listed as LysB,did not differ from NaB; also recorded: significantly greater than TB
"CCCC(=O)[O-].[Na+] [Sodium Butyrate, Sodium butyrate]",Alertness,[4]; [9],6.4 ± 1.2
same,Calm and Relaxed,[4]; [9],7.6 ± 0.9 cm
same,Concentration,[4]; [9],6.4 ± 1.2 cm
same,Mood,[4]; [9],7.1 ± 1.2 cm
same,Stressed and Anxious,[4]; [9],2.4 ± 1.4 cm
same,Well-being,[4]; [9],7.0 ± 1.2 cm
same,Alertness,"[4]; in vivo, po",6.5 ± 1.6 and 6.8 ± 1.3 and 6.7 ± 1.6 and 7.1 ± 1.8
same,Alertness AUC,"[4]; in vivo, po",1411 ± 293
same,Calm and Relaxed,"[4]; in vivo, po",7.3 ± 1.2 cm and 7.6 ± 1.0 cm and 7.9 ± 1.1^¥ cm and 7.9 ± 1.2 cm
same,Calm and Relaxed AUC,"[4]; in vivo, po",1608 ± 216
same,Concentration,"[4]; in vivo, po",6.4 ± 1.7 cm and 6.6 ± 1.5 cm and 6.5 ± 1.9 cm and 6.9 ± 2.1 cm
same,Concentration AUC,"[4]; in vivo, po",1371 ± 343
same,Mood,"[4]; in vivo, po",7.1 ± 1.1 cm and 7.4 ± 1.2 cm and 7.7 ± 1.0 cm and 7.8 ± 1.2 cm
same,Mood AUC,"[4]; in vivo, po",1558 ± 215
same,Perform Tasks,"[4]; in vivo, po",6.8 ± 1.6 cm and 7.1 ± 1.3 cm and 6.9 ± 1.7 cm and 7.1 ± 1.5 cm
same,Perform Tasks AUC,"[4]; in vivo, po",1452 ± 297
same,Stressed and Anxious,"[4]; in vivo, po",2.3 ± 1.5 cm and 2.3 ± 1.6 cm and 2.1 ± 1.8 cm and 2.0 ± 1.8 cm
same,Stressed and Anxious AUC,"[4]; in vivo, po",466 ± 339
same,Well-being,"[4]; in vivo, po",7.2 ± 1.2 cm and 7.3 ± 1.2 cm and 7.5 ± 1.1 cm and 7.6 ± 1.3 cm
same,Well-being AUC,"[4]; in vivo, po",1543 ± 242
same,Perform Tasks,[4]; [10],6.5 ± 1.4^£ # cm
same,Tmax comparison between treatments,[5],significantly less than TB
same,AUC0-210 comparison between treatments,[5],significantly greater than TB
same,Cmax comparison between treatments,[5],significantly greater than TB
"CCCC(=O)OCC(COC(=O)CCC)OC(=O)CCC [TB, propane-1,2,3-triyl tributanoate]",Ability to concentrate (VAS),[4]; [9],6.9 ± 1.7 cm
same,Alertness,[4]; [9],6.7 ± 1.7
same,Calm and Relaxed,[4]; [9],7.5 ± 1.2 cm
same,Mood,[4]; [9],7.1 ± 1.5^# cm
same,Stressed and Anxious,[4]; [9],2.7 ± 2.0 cm
same,Well-being,[4]; [9],7.4 ± 1.2 cm
same,Alertness AUC,[4]; [11],1481 ± 293
same,Calm and Relaxed AUC,[4]; [11],1571 ± 245
same,Concentration AUC,[4]; [11],1504 ± 315
same,Mood AUC,[4]; [11],1600 ± 214
same,Well-being AUC,[4]; [11],1588 ± 234
same,Stressed and Anxious AUC,"[4]; 0-210 min, 786 mg of butyric acid oral, Mean±SD, raw untransformed data",518 ± 408
same,Ability to concentrate (VAS),[4]; [12],7.1 ± 1.6 cm
same,Alertness,[4]; [12],7.0 ± 1.5
same,Calm and Relaxed,[4]; [12],7.2 ± 1.4 cm
same,Mood,[4]; [12],7.5 ± 1.1^# cm
same,Stressed and Anxious,[4]; [12],2.7 ± 2.2 cm
same,Well-being,[4]; [12],7.6 ± 1.1 cm
same,Ability to concentrate (VAS),[4]; [13],6.9 ± 1.6 cm
same,Alertness,[4]; [13],6.9 ± 1.4
same,Calm and Relaxed,[4]; [13],7.5 ± 1.3 cm
same,Mood,[4]; [13],7.6 ± 1.0^# cm
same,Stressed and Anxious,[4]; [13],2.4 ± 1.9 cm
same,Well-being,[4]; [13],7.6 ± 1.2 cm
same,Alertness,[4]; [14],7.1 ± 1.6^#
same,Calm and Relaxed,[4]; [14],7.5 ± 1.2 cm
same,Concentration,[4]; [14],7.4 ± 1.4^α cm
same,Mood,[4]; [14],7.7 ± 1.0 cm
same,Stressed and Anxious,[4]; [14],2.4 ± 2.0 cm
same,Well-being,[4]; [14],7.5 ± 1.1 cm
same,Ability to concentrate (VAS),[4]; [15],7.5 ± 1.6 cm
same,Alertness,[4]; [15],7.5 ± 1.5
same,Calm and Relaxed,[4]; [15],7.9 ± 1.2 cm
same,Mood,[4]; [15],8.0 ± 1.0 cm
same,Stressed and Anxious,[4]; [15],2.3 ± 2.2 cm
same,Well-being,[4]; [15],7.8 ± 1.2 cm
same,Perform Tasks,[4]; [10],6.9 ± 1.6 cm
same,Perform Tasks AUC,"[4]; motivation to perform tasks, 0-210 min, 786 mg of butyric acid oral, Mean±SD",1505 ± 331
same,Perform Tasks,"[4]; motivation to perform tasks, 45 min post ingestion, 786 mg of butyric acid oral, 100-mm VAS, Mean±SD",7.2 ± 1.3 cm
same,Perform Tasks,"[4]; motivation to perform tasks, 90 min post ingestion, 786 mg of butyric acid oral, 100-mm VAS, Mean±SD",7.1 ± 1.7 cm
same,Perform Tasks,"[4]; motivation to perform tasks, 150 min post ingestion, 786 mg of butyric acid oral, 100-mm VAS, Mean±SD",7.2 ± 1.8 cm
same,Perform Tasks,"[4]; motivation to perform tasks, 210 min post ingestion, 786 mg of butyric acid oral, 100-mm VAS, Mean±SD",7.3 ± 1.9 cm
same,Serum Butyrate,[6]; 0 min,0.41 ± 0.71 µg/mL
same,Serum Butyrate AUC0-210,"[6]; po, 786 mg",108 ± 190
same,Serum Butyrate Cmax,"[6]; po, 786 mg",910 ± 1650 ng/mL
L-arginine butyrate,Appearance after exposure to air,[2]; 24 hours at room temperature,"formed hard, rock-like clumps"
same,Hygroscopicity,[2],quite hygroscopic
same,Appearance after exposure to air,[2]; [7],"significantly hydrated into, large solid masses"
